Measured values: patent US20200230126A1, “TARGETED THERAPEUTICS” (TARVEDA THERAPEUTICS, INC., priority 2017, published 2020)

Key:
[1] = Particulate formation in dosing solutions using 0.9% Sodium Chloride, 5% Mannitol and 5% Dextrose adjusted to the low USP pH limits, with rocking (appearance, pH, HPLC recovery); assay type: physicochemical; design: key to appearance: Conforms = clear and essentially free of visible particles
Description: A study was conducted with 0.6 mg/mL and 2.4 mg/mL solutions of SDC-TRAP-0063 Sodium using one of three diluents; 0.9% Sodium Chloride as a positive control, and 5% Dextrose and 5% Mannitol as potential new diluents (Table 2). Each diluent was prepared at the lower pH limit of USP to test a worst-case scenario for solubility (the starting pH was 4.5 for 0.9% Sodium Chloride and 5% Mannitol and 3.2 for 5% Dextrose). The SDC-TRAP-0063 Sodium dosing solutions were prepared in glass vials and then placed on a rocker. […]

Solubility in water = assay type: physicochemical
Excerpt: As discussed above, the solubility of SDC-TRAP-0063 Sodium is driven primarily by pH. […] Reducing the pH allows the equilibrium to shift more to the lactone form and adversely impacts solubility. Dilute solutions of SDC-TRAP-0063 Sodium result in a lower pH with an increased risk of precipitation. The solubility of SDC-TRAP-0063 Sodium has also been seen to be adversely impacted by the use of 0.9% Sodium Chloride as a diluent. A common ion effect is the likely source of this observation.

In the case of `CCc1c2c(nc3ccc(OC(=O)N4CCC(CCn5ccc6cc(-n7c(O)nnc7-c7cc(C(C)C)c(O)cc7O)ccc65)CC4)cc13)-c1cc([C@@](O)(CC)C(=O)[O-])c(CO)c(=O)n1C2.[Na+]` [SDC-TRAP-0063 Sodium, Sodium (S)-2-(2-((4-(2-(5-(3-(2,4-dihydroxy-5-isopropylphenyl)-5-hydroxy-4H-1,2,4-triazol-4-yl)-1H-indol-1-yl)ethyl)piperidine-1-carbonyl)oxy)-12-ethyl-8-(hydroxymethyl)-9-oxo-9,11-dihydroindolizino[1,2-b]quinolin-7-yl)-2-hydroxybutanoate], the pH ([1]; 0.9% Sodium Chloride, pH 4.5, 0.6 mg/mL) is reported as 8.7, the appearance ([1]; 0.9% Sodium Chloride, pH 4.5, 0.6 mg/mL, 0 hours) is reported as “Conforms^1” and the appearance ([1]; 0.9% Sodium Chloride, pH 4.5, 0.6 mg/mL, 6 hours) is reported as “Precipitate”. For the same molecule, the appearance ([1]; 0.9% Sodium Chloride, pH 4.5, 0.6 mg/mL, 24 hours) was “Precipitate”, the pH ([1]; 0.9% Sodium Chloride, pH 4.5, 2.4 mg/mL) was 9.4 and the appearance ([1]; 0.9% Sodium Chloride, pH 4.5, 2.4 mg/mL, 0 hours) was “Conforms^1”. For the same molecule, the appearance ([1]; 0.9% Sodium Chloride, pH 4.5, 2.4 mg/mL, 6 hours) was “Precipitate”, the appearance ([1]; 0.9% Sodium Chloride, pH 4.5, 2.4 mg/mL, 24 hours) was “Precipitate” and the pH ([1]; 5% Dextrose, pH 3.2, 0.6 mg/mL) was 7.5. For the same molecule, the appearance ([1]; 5% Dextrose, pH 3.2, 0.6 mg/mL, 0 hours) was “Conforms^1”, the appearance ([1]; 5% Dextrose, pH 3.2, 0.6 mg/mL, 6 hours) was “Precipitate” and the appearance ([1]; 5% Dextrose, pH 3.2, 0.6 mg/mL, 24 hours) was “Precipitate”. For the same molecule, the pH ([1]; 5% Dextrose, pH 3.2, 2.4 mg/mL) was 9.1, the appearance ([1]; 5% Dextrose, pH 3.2, 2.4 mg/mL, 0 hours) was “Conforms^1” and the appearance ([1]; 5% Dextrose, pH 3.2, 2.4 mg/mL, 6 hours) was “Conforms^1”. The appearance ([1]; 5% Dextrose, pH 3.2, 2.4 mg/mL, 24 hours) was “Precipitate”, the pH ([1]; 5% Mannitol, pH 4.5, 0.6 mg/mL) was 8.6 and the appearance ([1]; 5% Mannitol, pH 4.5, 0.6 mg/mL, 0 hours) was “Conforms^1”. The appearance ([1]; 5% Mannitol, pH 4.5, 0.6 mg/mL, 6 hours) was “Precipitate”, the appearance ([1]; 5% Mannitol, pH 4.5, 0.6 mg/mL, 24 hours) was “Precipitate” and the pH ([1]; 5% Mannitol, pH 4.5, 2.4 mg/mL) was 9.8. The appearance ([1]; 5% Mannitol, pH 4.5, 2.4 mg/mL, 0 hours) was “Conforms^1”, the appearance ([1]; 5% Mannitol, pH 4.5, 2.4 mg/mL, 6 hours) was “Conforms^1” and the appearance ([1]; 5% Mannitol, pH 4.5, 2.4 mg/mL, 24 hours) was “Conforms^1”. The solubility (Solubility in water) was over 52.5 mg/mL.
